From US5453438A, “Hydroxamic acid based collagenase inhibitors” (British Biotech Pharmaceuticals Limited, priority 1989, dated 1995)
pIC50: −log10 of the molar value.

Biological target: collagenase
Test: Collagenase inhibition activity (acetylated 14C collagen hydrolysis, Cawston and Barrett)
Format: biochemical
Conditions: 37°, 16 hours, pH 7.5, read-out: IC50 (inhibitor concentration effecting 50% inhibition of the collagenase)
Protocol: The potency of compounds of general formula I to act as inhibitors of collagenase (a metalloprotease involved in tissue degradation) was determined by the procedure of Cawston and Barrett, (Anal. Biochem., 99, 340-345, 1979) and their potency to act as inhibitors of stromelysin was determined using the procedure of Cawston et al (Biochem. J., 195, 159-165 1981), both of which techniques are to be described more fully in the examples and, to the extent that the law allows, are incorporated by reference herein.
The potency of compounds of general formula I to act as inhibitors of collagenase (a metalloprotease involved in tissue degradation) was determined by the procedure of Cawston and Barrett, (Anal. Biochem., 99, 340-345, 1979), hereby incorporated by reference, whereby a 1 mM solution of the inhibitor being tested or dilutions thereof was incubated at 37° for 16 hours with collagen and collagenase (buffered with 25 mM Hepes, pH 7.5 containing 5 mM CaCl2, 0.05% Brij 35 and 0.02% NAN3). The collagen was acetylated ^14C collagen prepared by the method of Cawston and Murphy (Methods in Enzymology, 80, 711, 1981), hereby incorporated by reference. The samples were centrifuged to sediment undigested collagen and an aliquot of the radioactive supernatant removed for assay on a scintillation counter as a measure of hydrolysis. The collagenase activity in the presence of 1 mM inhibitor, or a dilution thereof, was compared to activity in a control devoid of inhibitor and the results reported below as that inhibitor concentration effecting 50% inhibition of the collagenase (IC50).

SMILES	pIC50
CC(C)C[C@H](CC(=O)NO)C(=O)N[C@@H](Cc1ccccc1)C(=O)N(C)CCO [Example 2, [4-(N-Hydroxyamino)-2R-isobutylsuccinyl]-L-phenylalanine-N-(2-hydroxyethyl)-N-methylamide]	6.70
CCSCCNC(=O)[C@H](Cc1ccccc1)NC(=O)[C@@H](CC(=O)NO)CC(C)C [Example 3, [4-(N-Hydroxyamino)-2R-isobutylsuccinyl]-L-phenylalanine-N-(2-ethylthioethyl) amide]	7.70
CC(=O)NCCNC(=O)[C@H](Cc1ccccc1)NC(=O)[C@@H](CC(=O)NO)CC(C)C [Example 4, [4-(N-Hydroxyamino)-2R-isobutylsuccinyl]-L-phenylalanine-N-(2-N-acetylethyl) amide]	7.05
